Assay [1] concerns LLC-PK1. Kind of assay: Nephroprotective activity against cisplatin induced cytotoxicity in pig LLC-PK1 cells assessed as decrease in phosphorylated ERK level at 125 uM incubated for 24 hrs by Western blot analysis. It is filed as functional, cell-based. The note with it: Sus scrofa.
For assay [2], the system named is LLC-PK1. Kind of assay: Nephroprotective activity against cisplatin induced cytotoxicity in pig LLC-PK1 cells assessed as increase in cell viability at 25 uM incubated for 24 hrs by MTT assay. The class given is functional, Sus scrofa.
Assay [3] concerns LLC-PK1. Put plainly: Nephroprotective activity against cisplatin induced cytotoxicity in pig LLC-PK1 cells assessed as increase in cell viability at 50 uM incubated for 24 hrs by MTT assay. The class given is functional, Sus scrofa.
For assay [4], the system named is LLC-PK1. Put plainly: Nephroprotective activity against cisplatin induced apoptosis in pig LLC-PK1 cells assessed as decrease in ratio of apoptotic cells at 125 uM incubated for 24 hrs by annexin V staining based image cytometric analysis. It is filed as functional, cell-based. The note with it: Sus scrofa.
Assay [5] relates to LLC-PK1. Kind of assay: Nephroprotective activity against cisplatin induced cytotoxicity in pig LLC-PK1 cells assessed as increase in cell viability at 250 uM incubated for 24 hrs by MTT assay. It is filed as functional, Sus scrofa.
For assay [6], the system named is LLC-PK1. Kind of assay: Nephroprotective activity against cisplatin induced cytotoxicity in pig LLC-PK1 cells assessed as decrease in phosphorylated JNK level at 125 uM incubated for 24 hrs by Western blot analysis. The class given is functional, cell-based. The note with it: Sus scrofa.
Assay [7] deals with LLC-PK1. Put plainly: Nephroprotective activity against cisplatin induced cytotoxicity in pig LLC-PK1 cells assessed as decrease in cleaved caspase-3 level at 125 uM incubated for 24 hrs by Western blot analysis. The class given is functional, cell-based. The settings on record: Sus scrofa.
In assay [8] the test system is LLC-PK1. Put plainly: Nephroprotective activity against cisplatin induced cytotoxicity in pig LLC-PK1 cells assessed as increase in cell viability at 125 uM incubated for 24 hrs by MTT assay. The class given is functional, Sus scrofa.

Activity calls are given as the source filed them. The rule behind the calls is not given here.

Take `COc1cc(Br)c(/C=C/C(=N/O)c2ccc(Br)cc2)cc1OC`: the result with LLC-PK1 [1], in the assay on LLC-PK1 [4], with LLC-PK1 [6] and in the assay on LLC-PK1 [7] was Active. Moreover, the Activity in the assay with LLC-PK1 [2] is 66.83%; in the assay on LLC-PK1 [3], 83.86%; in the assay on LLC-PK1 [5] it was 94.78%; with LLC-PK1 [8], 83.79%.

For `COc1cc(Br)c(/C=C/C(=N/O)c2ccc(Cl)cc2)cc1OC`, the result in the assay with LLC-PK1 [1], in the assay on LLC-PK1 [4], with LLC-PK1 [6] and in the assay with LLC-PK1 [7] was Active. In addition, the Activity in the assay with LLC-PK1 [3] is 82.22%; in the assay on LLC-PK1 [5], 94.51%; in the assay with LLC-PK1 [8], 84.41%.

The values are drawn from ChEMBL document CHEMBL5223153, “Elucidation of protective effects of oxime derivatives against cisplatin-induced cytotoxicity in LLC-PK1 kidney cells” (2023).
